Results taken from paper PMC5481828, “Construction of a synthetic metabolic pathway for biosynthesis of the non-natural methionine precursor 2,4-dihydroxybutyric acid” (Nature Communications, 2017).

Legend:
Ec-LysC = Ec-LysC (Escherichia coli, UniProt P08660); settings: 2 mM ATP, 5 mM MgCl2, 50 mM KCl, Hepes pH 7.5, 37 °C
Ms-Ssr = molecular target: T1, Ms-Ssr (Metallosphaera sedula, UniProt A4YGN0); assay: NAD(P)H oxidation at […] nm; format: biochemical; settings: NADPH 0.2 mM, Hepes pH 7.5, 50 mM KCl, 5 mM MgCl2, 37 °C; read-out: affinity
T1 construct: gene Msed_1424
T1 sequence (A4YGN0 1-360): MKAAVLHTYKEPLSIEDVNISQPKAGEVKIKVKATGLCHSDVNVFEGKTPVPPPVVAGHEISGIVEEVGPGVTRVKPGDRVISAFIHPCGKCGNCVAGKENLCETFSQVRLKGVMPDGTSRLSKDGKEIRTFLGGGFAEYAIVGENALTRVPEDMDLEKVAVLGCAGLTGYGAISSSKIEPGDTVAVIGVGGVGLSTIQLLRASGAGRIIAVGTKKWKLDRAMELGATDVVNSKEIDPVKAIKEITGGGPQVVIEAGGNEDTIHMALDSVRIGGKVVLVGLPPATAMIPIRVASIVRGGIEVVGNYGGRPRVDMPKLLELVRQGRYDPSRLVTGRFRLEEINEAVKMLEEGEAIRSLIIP

Bs-Asd = Bs-Asd (Bacillus subtilis, UniProt Q04797, E218Q); assay: NADPH oxidation, substrate made in situ by malate kinase; format: biochemical; settings: biosynthetic direction, 0.2 mM NADPH, 2 mM ATP, 20 mM malate, Hepes pH 7, 37 °C
Mj-Asd = molecular target: T2, Mj-Asd (Methanocaldococcus jannaschii, UniProt Q57658); assay: as above; format: biochemical; settings: biosynthetic direction, 0.2 mM NADPH, 2 mM ATP, 20 mM malate, Hepes pH 7, 37 °C
T2 sequence (Q57658 1-354): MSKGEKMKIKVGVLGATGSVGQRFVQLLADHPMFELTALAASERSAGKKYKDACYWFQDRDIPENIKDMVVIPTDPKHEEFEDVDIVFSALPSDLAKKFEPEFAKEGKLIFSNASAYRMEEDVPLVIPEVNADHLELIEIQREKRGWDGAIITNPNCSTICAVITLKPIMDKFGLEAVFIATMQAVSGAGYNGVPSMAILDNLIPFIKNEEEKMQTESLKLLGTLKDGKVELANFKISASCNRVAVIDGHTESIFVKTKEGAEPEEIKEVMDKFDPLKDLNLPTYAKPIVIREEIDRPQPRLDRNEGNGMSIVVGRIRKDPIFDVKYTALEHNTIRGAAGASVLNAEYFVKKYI

Ec-LysC, sequence (P08660 whole entry): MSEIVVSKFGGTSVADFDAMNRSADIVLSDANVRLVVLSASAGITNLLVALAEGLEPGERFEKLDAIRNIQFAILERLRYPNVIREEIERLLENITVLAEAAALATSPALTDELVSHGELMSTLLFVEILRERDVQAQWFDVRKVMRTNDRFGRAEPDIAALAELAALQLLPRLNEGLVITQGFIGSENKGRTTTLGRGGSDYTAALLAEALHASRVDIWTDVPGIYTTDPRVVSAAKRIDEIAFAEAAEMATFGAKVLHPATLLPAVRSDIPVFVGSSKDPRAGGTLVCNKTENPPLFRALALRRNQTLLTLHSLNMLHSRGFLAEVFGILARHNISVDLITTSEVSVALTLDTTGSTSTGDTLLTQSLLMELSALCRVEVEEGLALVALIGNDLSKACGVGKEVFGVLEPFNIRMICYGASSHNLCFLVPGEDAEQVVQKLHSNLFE
Bs-Asd, sequence (Q04797 whole entry E218Q): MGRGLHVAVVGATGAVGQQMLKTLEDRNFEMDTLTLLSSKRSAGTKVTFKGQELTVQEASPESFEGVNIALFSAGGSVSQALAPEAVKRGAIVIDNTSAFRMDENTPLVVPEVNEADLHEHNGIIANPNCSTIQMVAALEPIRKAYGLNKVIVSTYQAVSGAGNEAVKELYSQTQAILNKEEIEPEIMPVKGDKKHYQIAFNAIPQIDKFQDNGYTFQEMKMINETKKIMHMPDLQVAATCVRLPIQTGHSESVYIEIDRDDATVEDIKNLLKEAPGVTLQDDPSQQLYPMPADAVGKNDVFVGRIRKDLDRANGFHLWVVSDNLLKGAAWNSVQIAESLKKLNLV

Compound: N[C@@H](CC(=O)O)C(=O)O [(L)-aspartate]
- Km (Ec-LysC): Catalytic efficiency (kcat/Km) of wild-type aspartate kinase

Compound: O=CC[C@H](O)C(=O)O [MSA, malate semialdehyde]
- Km (Ms-Ssr): 1100 µM

Compound: O=C(C[C@H](O)C(=O)O)OP(=O)(O)O [malyl-P, malyl-4-phosphate]
- NADPH oxidation, substrate made in situ by malate kinase (Bs-Asd): Bs-Asd E218Q mutant enzyme, which displayed an almost eightfold increased activity on malyl-P
- NADPH oxidation, substrate made in situ by malate kinase (Mj-Asd): Enzymatic activities of wild-type Bs-Asd and Mj-Asd on malyl-P were approximately threefold lower
